Assay results from US20230365571A1, “COMPOUNDS AND COMPOSITIONS AS Sppl2a INHIBITORS” (Novartis AG, priority 2020, published 2023).

Assays:
Assay type in all cases: cell-based
Sppl2a CD74 = target: T1, Sppl2a CD74 (Mus musculus, UniProt Q9JJF9); assay: CD74/p8 mouse whole blood assay, flow cytometry format; conditions: Balb/c mouse whole blood, 5 h, CD74 signal on gated live B cells
T1 construct: Mouse whole blood Balb/c mice (sodium citrate) was ordered by Bioreclamation LLC; tissue Bioreclamation LLC
T1 sequence (Q9JJF9 26-523): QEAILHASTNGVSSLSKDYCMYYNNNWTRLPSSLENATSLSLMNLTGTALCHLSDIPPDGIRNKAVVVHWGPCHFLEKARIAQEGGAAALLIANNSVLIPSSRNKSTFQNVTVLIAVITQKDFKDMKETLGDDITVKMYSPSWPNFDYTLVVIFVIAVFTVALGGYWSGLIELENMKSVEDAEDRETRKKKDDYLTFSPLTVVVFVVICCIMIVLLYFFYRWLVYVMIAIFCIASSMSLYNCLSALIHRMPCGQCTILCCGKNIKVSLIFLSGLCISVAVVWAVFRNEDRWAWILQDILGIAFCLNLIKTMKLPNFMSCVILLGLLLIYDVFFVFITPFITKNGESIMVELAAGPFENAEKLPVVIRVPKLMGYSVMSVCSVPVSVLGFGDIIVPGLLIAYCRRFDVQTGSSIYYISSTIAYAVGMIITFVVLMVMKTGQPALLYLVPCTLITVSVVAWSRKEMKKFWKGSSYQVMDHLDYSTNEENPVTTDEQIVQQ
Protocol: CD74/p8 Mouse Whole Blood Assay: Flow Cytometry Format
Mouse whole blood Balb/c mice (sodium citrate) was ordered by Bioreclamation LLC; USA. The blood was used the next day upon receipt (stored at 4° C.). 100 μL blood were transferred in 96 well format plate, where compounds, an 11 point dilutions down from 30 μM, to be tested were previously deposited. The plate was incubated for 5 h in the incubator at 37° C., 5% CO2 under continuous motion. After the incubation the blood was diluted with RBC Lysis Buffer (Amined; Cat. Nr 3-13F00-H or BD; Cat. Nr 555899). The solution was mixed by pipetting and incubated 10 min in the 37° C. incubator. The white blood cells were sedimented for 3 min at 2000 rpm. After removing the supernatant the cell pellet was resuspended and washed twice in RCB Buffer and kept≈ 5 min at room temperature, followed by a centrifugation for 2 min at 2000 rpm. The cell pellet was then resuspend in D-PBS and centrifuged twice. Finally, the cells were taken up in of D-PBS/0.5% inactivated fetal bovine serum/2 mM EDTA. The cell suspension was treated with Live/Dead fixable stain (Life Technologies, >470 nm version), B cells were identified by surface staining with an anti-B220 antibody coupled to APC fluorofor. After staining, the cells were extensively washed with PBS. The cells were permeabilized and fixed in FACS lysing buffer; (BD; #349202, dil 1:10 in water) and labelled with an anti CD74, FITC labelled antibody, washed once more with diluted FACS lysing buffer and spin down. The cell pellet was washed with D-PBS/0.5% inactivated fetal bovine serum/2 mM EDTA and PBS prior to the analysis in a flow cytometer. The compound concentrations were plotted against the intensity (medium fluorescence intensity) of the CD74 signal on the gated life B cell and IC50 were determined by fitting data for a 11 concentrations dose response.

human SPPL2a [1] = target: T2, human SPPL2a (Homo sapiens, UniProt Q8TCT8); assay: Sppl2a RGA (reporter gene assay) in HEK293 cells; parameters: expressed in transfected cells; host or cells: HEK293 (transient); conditions: NT-TNF-VP16-Gal4 substrate, Gal4-luciferase reporter, 24 h
T2 sequence (Q8TCT8 26-520): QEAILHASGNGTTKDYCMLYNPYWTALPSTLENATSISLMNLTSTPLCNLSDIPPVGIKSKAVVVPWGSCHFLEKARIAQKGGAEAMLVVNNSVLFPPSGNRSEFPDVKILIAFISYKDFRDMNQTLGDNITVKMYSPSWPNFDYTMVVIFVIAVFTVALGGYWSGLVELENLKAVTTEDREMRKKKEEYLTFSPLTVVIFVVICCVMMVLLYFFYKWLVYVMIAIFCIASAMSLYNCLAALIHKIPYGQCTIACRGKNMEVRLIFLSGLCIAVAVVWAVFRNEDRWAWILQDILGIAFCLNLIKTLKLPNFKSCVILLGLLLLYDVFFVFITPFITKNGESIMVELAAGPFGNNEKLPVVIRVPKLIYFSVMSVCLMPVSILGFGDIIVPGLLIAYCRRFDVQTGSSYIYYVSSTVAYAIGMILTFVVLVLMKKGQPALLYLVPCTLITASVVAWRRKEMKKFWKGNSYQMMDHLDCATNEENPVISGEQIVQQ
Summary of the method: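 HEK293 cells transiently co-transfected with human SPPL2a, NT-TNF-VP16-Gal4 substrate and Gal4-luciferase reporter, compound added within 5 h. After 24 h at 37 °C, luciferase luminescence measured; IC50 from concentration versus normalized luminescence.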

human SPPL2a [2] = target: T2, human SPPL2a; assay: Sppl2a TL (translocation) imaging assay in U-2 OS cells; parameters: expressed in transfected cells; conditions: U-2 OS cells expressing human SPPL2a and EGFP-TNFα(aa1-76) NTF substrate; 24 h
Summary of the method: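 U-2 OS cells stably expressing human SPPL2a plus doxycycline-induced EGFP-TNFα(aa1-76) NTF, treated 24 h at 37 °C with inhibitor (100 μM–1 nM, 11 points, 0.9% DMSO, 5 μg/mL doxycycline). Imaging of nuclear-minus-cytoplasmic EGFP intensity; % inhibition versus 0.5 μM LY-411,575 and DMSO, IC50 by nonlinear regression; CC50 from cell count.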

IC50 (Sppl2a CD74) [nM] | IC50 (human SPPL2a [1]) [nM] | IC50 (human SPPL2a [2]) [nM] | Structure (SMILES)
358 | 29 | 24 | CNC(=O)c1nc(C)c(C(=O)NC[C@@H](C)C(=O)N[C@@H]2C(=O)N3CCCN3Cc3ccccc32)s1 [Example 1, N^2,4-dimethyl-N^5—((R)-2-methyl-3-oxo-3-(((S)-11-oxo-2,3,10,11-tetrahydro-1H,5H-benzo[d]pyrazolo[1,2-a][1,2]diazepin-10-yl)amino)propyl)thiazole-2,5-dicarboxamide]
100 | 3 | 0.5 | Cc1nc(NC(=O)C(C)C)sc1C(=O)NC[C@H](C(=O)N[C@@H]1C(=O)N2CCCN2Cc2ccccc21)C(F)(F)F [Example 3, 2-Isobutyramido-4-methyl-N-((R)-3,3,3-trifluoro-2-(((S)-11-oxo-2,3,10,11-tetrahydro-1H,5H-benzo[d]pyrazolo [1,2-a][1,2]diazepin-10-yl)carbamoyl)pro-pyl)thiazole-5-carboxamide]
100 | 12 | 1 | Cc1nc(NC(=O)C(C)C)sc1C(=O)NC[C@@H](C)C(=O)N[C@@H]1C(=O)N2CCCN2Cc2ccccc21 [Example 4, 2-Isobutyramido-4-methyl-N-((R)-2-methyl-3-oxo-3-(((S)-11-oxo-2,3,10,11-tetrahydro-1H,5H-benzo[d]pyrazolo [1,2-a][1,2]diazepin-10-yl)amino)propyl) thiazole-5-carboxamide]
225 | 2 | 2 | Cc1nc(C(=O)NCC(F)F)sc1C(=O)NC[C@H](C(=O)N[C@@H]1C(=O)N2CCCN2Cc2ccccc21)C(F)(F)F [Example 5, N^2-(2,2-Difluoroethyl)-4-methyl-N^5-((R)-3,3,3-trifluoro-2-(((S)-11-oxo-2,3,10,11-tetrahydro-1H,5H-benzo[d]pyrazolo [1,2-a][1,2]diazepin-10-yl)carbamoyl)pro-pyl)thiazole-2,5-dicarboxamide]
1560 | 2 | 2 | Cc1nc(C(=O)NCC(F)F)sc1C(=O)NC[C@H](C(=O)N[C@@H]1C(=O)N2CCCN2Cc2ccccc21)C1CC1 [Example 6, N^5-((R)-2-Cyclopropyl-3-oxo-3-(((S)-11-oxo-2,3,10,11-tetrahydro-1H,5H-benzo[d]pyrazolo [1,2-a][1,2]diazepin-10-yl)amino)propyl)-N^2-(2,2-difluoroethyl)-4-methylthiazole-2,5-dicarboxamide]
120 | 2 | 3 | CCNC(=O)c1nc(C)c(C(=O)NC[C@H](C(=O)N[C@@H]2C(=O)N3CCCN3Cc3ccccc32)C(F)(F)F)s1 [Example 7, N^2-Ethyl-4-methyl-N^5-((R)-3,3,3-trifluoro-2-(((S)-11-oxo-2,3,10,11-tetrahydro-1H,5H-benzo[d]pyrazolo [1,2-a][1,2]diazepin-10-yl)carbamoyl)pro-pyl)thiazole-2,5-dicarboxamide]
2430 | 4 | 3 | CC[C@H](CNC(=O)c1sc(C(=O)NCC(F)F)nc1C)C(=O)N[C@@H]1C(=O)N2CCCN2Cc2ccccc21 [Example 8, N^2-(2,2-Difluoroethyl)-4-methyl-N^5-((R)-2-(((S)-11-oxo-2,3,10,11-tetrahydro-1H,5H-benzo[d]pyrazolo [1,2-a][1,2]diazepin-10-yl)carbamoyl)butyl) thiazole-2,5-dicarboxamide]
157 | 4 | 3 | CNC(=O)c1nc(C)c(C(=O)NC[C@H](C(=O)N[C@@H]2C(=O)N3CCCN3Cc3ccccc32)C2CC2)s1 [Example 9, N^5-((R)-2-Cyclopropyl-3-oxo-3-(((S)-11-oxo-2,3,10,11-tetrahydro-1H,5H-benzo[d]pyrazolo [1,2-a][1,2]diazepin-10-yl)amino)propyl)-N^2,4-dimethylthiazole-2,5-dicarboxamide]
289 | 5 | 4 | CCNC(=O)c1nc(C)c(C(=O)NC[C@@H](CC)C(=O)N[C@@H]2C(=O)N3CCCN3Cc3ccccc32)s1 [Example 10, N^2-Ethyl-4-methyl-N^5-((R)-2-(((S)-11-oxo-2,3,10,11-tetrahydro-1H,5H-benzo[d]pyrazolo [1,2-a][1,2]diazepin-10-yl)carbamoyl)butyl) thiazole-2,5-dicarboxamide]
95 | 3 | 4 | CNC(=O)c1nc(C)c(C(=O)NC[C@H](C(=O)N[C@@H]2C(=O)N3CCCN3Cc3ccccc32)C(F)(F)F)s1 [Example 11, N^2,4-Dimethyl-N^5-((R)-3,3,3-trifluoro-2-(((S)-11-oxo-2,3,10,11-tetrahydro-1H,5H-benzo[d]pyrazolo [1,2-a][1,2]diazepin-10-yl)carbamoyl)pro-pyl)thiazole-2,5-dicarboxamide]
280 | 4 | 5 | CCNC(=O)c1nc(C)c(C(=O)NC[C@H](C(=O)N[C@@H]2C(=O)N3CCCN3Cc3ccccc32)C2CC2)s1 [Example 12, N^5-((R)-2-Cyclopropyl-3-oxo-3-(((S)-11-oxo-2,3,10,11-tetrahydro-1H,5H-benzo[d]pyrazolo [1,2-a][1,2]diazepin-10-yl)amino)propyl)-N^2-ethyl-4-methylthiazole-2,5-dicarboxamide]
161 | 8 | 6 | CC[C@H](CNC(=O)c1sc(C(=O)NC)nc1C)C(=O)N[C@@H]1C(=O)N2CCCN2Cc2ccccc21 [Example 13, N^2,4-Dimethyl-N^5-((R)-2-(((S)-11-oxo-2,3,10,11-tetrahydro-1H,5H-benzo[d]pyrazolo [1,2-a][1,2]diazepin-10-yl)carbamoyl)butyl) thiazole-2,5-dicarboxamide]
 | 19 | 116 | Cc1cc(F)cc2nc(C[C@@H](C)C(=O)N[C@@H]3C(=O)N4CCCN4Cc4c(F)cccc43)[nH]c12 [Example 118, (R)-N-((S)-6-fluoro-11-oxo-2,3,10,11-tetrahydro-1 H,5H-benzo[d]pyrazolo[1,2-a][1,2]diazepin-10-yl)-3-(5-fluoro-7-methyl-1H-benzo[d]imidazol-2-yl)-2-methylpropanamide]
 | 19 | 185 | CCC[C@H](Cc1nc2cc(F)cc(C)c2[nH]1)C(=O)N[C@@H]1C(=O)N2CCCN2Cc2ccccc21 [Example 119, (R)-2-((5-fluoro-7-methyl-1H-benzo[d]imidazol-2-yl)methyl)-N-((S)-11-oxo-2,3,10,11-tetrahydro-1H,5H-benzo[d]pyrazolo[1,2-a][1,2]diazepin-10-yl)pentanamide]
